# “And” between values parts separate entries of the source, which are not always exact repeats. Equal entries are not always repeated. Where two headings read alike, the source gives them in different places.
# Legend:
# [1] = target: T1, wild-type (wt) GluN1/GluN2B receptors (UniProt P35439+Q01097); experiment: TEVC recordings in Xenopus oocytes, allosteric modulator sensitivity; type: cell-based, rat (GluN1), mouse (GluN2B)
# T1 construct: For full-length multimeric membrane-embedded receptors studied in cellulo, as done in the present work; expressed in transfected cells; host or cells: Xenopus laevis oocytes (nuclear cDNA injection, pcDNA3 plasmids)
# T1 sequence (Q01097 27-1482, other chains not shown): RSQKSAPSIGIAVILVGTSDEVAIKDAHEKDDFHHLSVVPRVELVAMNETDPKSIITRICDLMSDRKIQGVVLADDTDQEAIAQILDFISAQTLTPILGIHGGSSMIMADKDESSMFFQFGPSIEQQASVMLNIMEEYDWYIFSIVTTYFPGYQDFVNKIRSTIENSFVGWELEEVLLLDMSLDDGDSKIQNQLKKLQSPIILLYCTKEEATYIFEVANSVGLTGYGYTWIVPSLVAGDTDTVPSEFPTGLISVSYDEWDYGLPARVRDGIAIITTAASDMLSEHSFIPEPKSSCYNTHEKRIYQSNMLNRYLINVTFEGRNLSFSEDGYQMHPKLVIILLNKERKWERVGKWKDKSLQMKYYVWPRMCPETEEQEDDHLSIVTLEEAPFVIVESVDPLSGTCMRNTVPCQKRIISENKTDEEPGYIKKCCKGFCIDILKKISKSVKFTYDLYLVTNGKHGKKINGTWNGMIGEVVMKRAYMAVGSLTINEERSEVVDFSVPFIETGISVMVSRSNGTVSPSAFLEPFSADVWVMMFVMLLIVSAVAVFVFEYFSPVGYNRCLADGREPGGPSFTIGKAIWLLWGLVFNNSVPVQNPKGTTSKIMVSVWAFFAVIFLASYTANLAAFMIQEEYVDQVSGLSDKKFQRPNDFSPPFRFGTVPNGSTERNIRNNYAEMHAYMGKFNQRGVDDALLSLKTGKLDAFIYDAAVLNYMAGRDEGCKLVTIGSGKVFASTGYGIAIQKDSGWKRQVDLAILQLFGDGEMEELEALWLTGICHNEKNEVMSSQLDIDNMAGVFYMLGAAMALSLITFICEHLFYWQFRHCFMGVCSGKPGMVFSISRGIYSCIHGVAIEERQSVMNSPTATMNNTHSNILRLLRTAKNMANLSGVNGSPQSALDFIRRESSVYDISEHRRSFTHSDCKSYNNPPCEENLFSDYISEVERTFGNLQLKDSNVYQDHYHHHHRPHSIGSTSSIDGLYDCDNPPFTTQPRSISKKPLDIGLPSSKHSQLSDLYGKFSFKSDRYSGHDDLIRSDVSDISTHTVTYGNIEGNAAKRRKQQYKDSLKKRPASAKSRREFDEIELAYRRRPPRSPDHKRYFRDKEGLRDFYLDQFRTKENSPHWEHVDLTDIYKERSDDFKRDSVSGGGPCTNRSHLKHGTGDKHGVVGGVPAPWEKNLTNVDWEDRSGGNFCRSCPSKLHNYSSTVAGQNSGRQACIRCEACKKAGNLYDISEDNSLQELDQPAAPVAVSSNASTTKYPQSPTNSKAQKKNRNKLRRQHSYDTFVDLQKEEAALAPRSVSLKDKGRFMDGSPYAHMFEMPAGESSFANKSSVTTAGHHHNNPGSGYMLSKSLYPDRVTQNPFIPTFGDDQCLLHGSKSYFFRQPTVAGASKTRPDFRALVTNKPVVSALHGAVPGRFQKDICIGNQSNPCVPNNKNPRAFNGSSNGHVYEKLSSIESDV
# Experimental: (§1) The pcDNA3-based expression plasmids for rat GluN1-1a (named GluN1 herein), rat GluN2A, and mouse GluN2B (also known as ε2) subunits, Pfu-based site-directed mutagenesis strategy, and sequencing procedure have been described previously[68],[69]. Incorporation of the unnatural amino acids (UAAs) AzF and BzF into NMDARs was performed using the genetic code expansion methodology as previously described[52],[53],[83]. The plasmid pSVB.Yam carrying the gene encoding the amber suppressor tRNA derived from B. stearothermophilus Tyr-tRNACUA, while the aminoacyl-tRNA synthetases (aaRS) construction for AzF and BzF derived from E. coli TyrRS[84],[85].
# (§2) Recombinant NMDARs were expressed in Xenopus laevis oocytes after nuclear injection of 36 nl of a mixture of cDNAs (at 10–30 ng/μl) encoding various GluN1 and GluN2 subunits (ratio 1:1). Oocytes were prepared, injected, incubated, and voltage-clamped as described previously. For UAA incorporation, oocytes were co-injected with 36 nl of a cDNA mixture encoding for of GluN1, GluN2, Yam, and aaRS as follows, unless otherwise indicated in the text: GluN1-K178amber (120 ng/μl), GluN2A (80 ng/µl) or GluN2B (120 ng/μl), Yam (10 ng/μl), AzF-RS (5 ng/μl). After injection, oocytes were incubated at 19 °C in a Barth solution containing (in mM) 88 NaCl, 1 KCl, 0.33 Ca(NO3)2, 0.41 CaCl2, 0.82 MgSO4, 2.4 NaHCO3, 10 HEPES (pH adjusted to 7.6 with NaOH) supplemented with gentamicin ([…]) and the NMDAR glutamate binding site competitive antagonist D-APV (50 μM). AzF and BzF were added to the incubation medium at final concentrations of 1 mM and 2 mM, respectively.
# (§3) For all experiments, except those on pH and spermine sensitivity, the standard external solution contained (in mM): 100 NaCl, 0.3 BaCl2, and 5 HEPES (pH adjusted to 7.3 with KOH). […] For the pH and spermine sensitivity experiments, an external solution enriched in HEPES was used to insure proper pH buffering. Unless otherwise mentioned, NMDAR-mediated currents were induced by simultaneously applications of saturating concentrations of glutamate and glycine (100 μM each). Glutamate and glycine dose-response curves (DRC) were performed in the presence of 100 µM glycine and 100 µM glutamate, respectively. Recordings were performed at a holding potential of −60 mV and at room temperature. Data were collected and analyzed using Clampex 10.5 and Clampfit 10.5 (Molecular Devices), respectively, and fitted using KaleidaGraph 4.0 (Synergy software).
# (§4) EC50 and nH were fitted as free parameters. […] For proton DRC, corrections for small shifts in the reference potential of bath electrodes and analysis of the data were performed as previously described. Spermine experiments were performed and analyzed as previously described. In brief, spermine sensitivity was assessed at pH 6.5 and at a holding potential of −30 mV to maximize the spermine induced potentiation. […] EC50, a and nH were set as free parameters. MK-801 is an NMDAR open channel blocker with slow reversibility and, consequently, the rate at which MK-801 inhibits NMDAR responses depends on the level of channel activity, that is, channel open probability (Po). Based on this principle, MK-801 is classically used to estimate the level of NMDAR channel activity in macroscopic whole-cell recordings[36],[47],[56],[86],[87]. Note, however, that MK- 801 inhibition kinetics can index relative, not absolute, Po. MK-801 solutions (10 nM for GluN2A-containing receptors and 50 nM for GluN2B-containing receptors) were prepared by dilution of a stock solution (50 mM) into the agonist containing solutions. MK-801 time constants of inhibition (τon) were obtained by fitting currents with a single-exponential component to a time window corresponding to 10–90% of maximum inhibition. On-rate (kon) constants were then calculated assuming a pseudo first-order reaction scheme: kon = 1 / ([MK-801]*τon).
# [2] = target: T2, GluN1-N512C-L777C/GluN2B-E517C-L781C receptors (UniProt P35439+Q01097, E517C/L777C/L781C/N521C); experiment: TEVC recordings in Xenopus oocytes, zinc and ifenprodil inhibition dose-response; type: cell-based, rat (GluN1), mouse (GluN2B)
# T2 construct: For full-length multimeric membrane-embedded receptors studied in cellulo, as done in the present work; expressed in transfected cells; host or cells: Xenopus laevis oocytes
# Experimental: as §1, §2, §3, §4
# [3] = target: T3, GluN1/GluN2B-N218C receptors (UniProt P35439+Q01097, N218C); experiment: as above; type: cell-based, rat (GluN1), mouse (GluN2B)
# T3 construct: For full-length multimeric membrane-embedded receptors studied in cellulo, as done in the present work; expressed in transfected cells; host or cells: Xenopus laevis oocytes
# Experimental: as §1, §2, §3, §4
# [4] = target: T4, GluN1-K178AzF/GluN2B receptors (UniProt P35439+Q01097, K178F); experiment: TEVC recordings in Xenopus oocytes, modulator sensitivity before and after UV photocrosslinking; type: cell-based, rat (GluN1), mouse (GluN2B); conditions: for Isper/Io 20 μM: 20 μM spermine; for Isper/Io 20 μM / Isper/Io 200 μM / Isper/Io 1000 μM / spermine maximal potentiation / spermine nH / EC50: pH 6.5, -30 mV; for Isper/Io 200 μM: 200 μM spermine; for Isper/Io 1000 μM: 1000 μM spermine; for EC50: read-out: spermine EC50
# T4 construct: For full-length multimeric membrane-embedded receptors studied in cellulo, as done in the present work; expressed in transfected cells; host or cells: Xenopus laevis oocytes, co-injected with amber suppressor tRNA (Yam) and AzF-RS
# T4 sequence (Q01097 27-1482, other chains not shown): as above
# Experimental: as §1, §2, §3, §4
# [5] = target: T5, GluN1-K178AzF/GluN2A receptors (Rattus norvegicus, UniProt P35439+Q00959, K178F); experiment: as above; type: cell-based
# T5 construct: For full-length multimeric membrane-embedded receptors studied in cellulo, as done in the present work; expressed in transfected cells; host or cells: Xenopus laevis oocytes, co-injected with amber suppressor tRNA (Yam) and AzF-RS
# T5 sequence (Q00959 23-1464, other chains not shown): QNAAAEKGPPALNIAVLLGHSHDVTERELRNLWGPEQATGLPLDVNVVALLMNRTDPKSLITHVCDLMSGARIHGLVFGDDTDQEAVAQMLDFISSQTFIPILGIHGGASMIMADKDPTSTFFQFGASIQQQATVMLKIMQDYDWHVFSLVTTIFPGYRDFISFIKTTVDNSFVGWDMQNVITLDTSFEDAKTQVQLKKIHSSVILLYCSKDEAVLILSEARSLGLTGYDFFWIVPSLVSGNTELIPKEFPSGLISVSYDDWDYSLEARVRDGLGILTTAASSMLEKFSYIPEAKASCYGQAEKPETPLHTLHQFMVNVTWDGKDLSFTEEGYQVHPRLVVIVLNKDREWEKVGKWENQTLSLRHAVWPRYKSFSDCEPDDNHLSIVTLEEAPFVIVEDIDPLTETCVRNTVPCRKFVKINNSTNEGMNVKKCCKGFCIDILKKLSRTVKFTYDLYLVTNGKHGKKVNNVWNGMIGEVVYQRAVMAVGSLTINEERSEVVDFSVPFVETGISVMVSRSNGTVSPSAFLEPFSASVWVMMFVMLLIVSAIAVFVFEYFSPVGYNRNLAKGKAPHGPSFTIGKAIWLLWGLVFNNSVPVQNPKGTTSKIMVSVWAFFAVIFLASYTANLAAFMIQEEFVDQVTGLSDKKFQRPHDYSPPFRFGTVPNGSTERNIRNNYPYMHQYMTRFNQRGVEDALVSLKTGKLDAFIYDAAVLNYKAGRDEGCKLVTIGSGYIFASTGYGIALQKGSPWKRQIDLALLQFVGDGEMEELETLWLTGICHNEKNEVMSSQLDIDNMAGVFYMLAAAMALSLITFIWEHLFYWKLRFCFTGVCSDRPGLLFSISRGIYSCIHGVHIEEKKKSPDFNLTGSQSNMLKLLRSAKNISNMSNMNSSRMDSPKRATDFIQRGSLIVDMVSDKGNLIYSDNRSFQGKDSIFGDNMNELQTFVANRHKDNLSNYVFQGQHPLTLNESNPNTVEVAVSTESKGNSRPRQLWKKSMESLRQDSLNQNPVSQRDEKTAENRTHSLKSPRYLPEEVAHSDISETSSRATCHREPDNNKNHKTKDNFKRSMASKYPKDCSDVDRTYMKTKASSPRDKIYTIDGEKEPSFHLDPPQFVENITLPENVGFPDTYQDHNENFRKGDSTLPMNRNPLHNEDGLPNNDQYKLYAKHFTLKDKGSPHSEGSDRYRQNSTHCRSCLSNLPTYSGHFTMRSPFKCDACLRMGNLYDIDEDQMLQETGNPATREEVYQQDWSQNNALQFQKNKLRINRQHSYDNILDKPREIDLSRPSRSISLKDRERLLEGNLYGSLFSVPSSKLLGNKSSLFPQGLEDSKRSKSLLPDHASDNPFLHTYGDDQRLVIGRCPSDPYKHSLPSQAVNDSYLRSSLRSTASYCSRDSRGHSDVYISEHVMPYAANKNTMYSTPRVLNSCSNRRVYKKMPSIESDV
# Experimental: as §1, §2, §3, §4
# [6] = pH 8.3 (second column so headed), +UV
# [7] = pH 6.5, holding potential -30 mV
smiles,measurement,setting,value
"CC(C(O)c1ccc(O)cc1)N1CCC(Cc2ccccc2)CC1 (centres unmarked) [ifenprodil, Ifenprodil]",ifenprodil Hill slope (nH),[1],1.22 ± 0.04 and 1.14 ± 0.11 and 1.11 ± 0.07
same,ifenprodil maximal inhibition,[1],0.95 ± 0.02 and 0.93 ± 0.01
same,ifenprodil Hill slope (nH),[2],0.83 ± 0.13
same,ifenprodil maximal inhibition,[2],0.76 ± 0.03
same,ifenprodil Hill slope (nH),[3],1.08 ± 0.06
same,ifenprodil maximal inhibition,[3],0.99 ± 0.02
same,ifenprodil Hill slope (nH),[4]; after UV,1.25 ± 0.11
same,ifenprodil maximal inhibition,[4]; after UV,0.54 ± 0.06
same,ifenprodil Hill slope (nH),[4]; before UV,1.25 ± 0.39
same,ifenprodil maximal inhibition,[4]; before UV,0.98 ± 0.09
[1H+] [proton],pHIC50 (proton sensitivity),[4]; after UV,6.90 ± 0.02
same,proton Hill slope (nH),[4]; after UV,0.99 ± 0.03
same,pHIC50 (proton sensitivity),[4]; before UV,7.60 ± 0.01
same,proton Hill slope (nH),[4]; before UV,1.37 ± 0.05
same,"proton, relative current at pH 6.3","[4]; pH 6.3, +UV",0.21 ± 0.09
same,"proton, relative current at pH 6.3","[4]; pH 6.3, -UV",0.03 ± 0.02
same,"proton, relative current at pH 7.3","[4]; pH 7.3, +UV",0.71 ± 0.02
same,"proton, relative current at pH 7.3","[4]; pH 7.3, -UV",0.28 ± 0.04
same,"proton, relative current at pH 8.3",[4]; [6],0.98 ± 0.01
same,"proton, relative current at pH 8.3","[4]; pH 8.3 (second column so headed), -UV",1.00 ± 0.03
same,"proton, relative current at pH 8.3","[4]; pH 8.3, +UV",0.97 ± 0.03
same,"proton, relative current at pH 8.3","[4]; pH 8.3, -UV",0.90 ± 0.04
same,rightward shift in the pH dose-response curve,[4]; post-UV vs pre-UV,> 0.5 pH-unit
same,pHIC50 (proton sensitivity),[5]; after UV,7.01 ± 0.01
same,proton Hill slope (nH),[5]; after UV,1.93 ± 0.07
same,pHIC50 (proton sensitivity),[5]; before UV,7.00 ± 0.02
same,proton Hill slope (nH),[5]; before UV,1.91 ± 0.11
same,"proton, relative current at pH 6.3","[5]; pH 6.3, +UV",0.04 ± 0.01
same,"proton, relative current at pH 6.3","[5]; pH 6.3, -UV",0.04 ± 0.01
same,"proton, relative current at pH 7.3","[5]; pH 7.3, +UV",0.78 ± 0.03
same,"proton, relative current at pH 7.3","[5]; pH 7.3, -UV",0.79 ± 0.03
same,"proton, relative current at pH 8.3",[5]; [6],1.00 ± 0.02
same,"proton, relative current at pH 8.3","[5]; pH 8.3, +UV",0.99 ± 0.02
same,"proton, relative current at pH 8.3","[5]; pH 8.3, -UV",0.99 ± 0.02
same,"proton, relative current at pH 9.3","[5]; pH 9.3, -UV",1.01 ± 0.04
NCCCNCCCCNCCCN [spermine],Isper/Io 20 μM,"[1]; 20 μM spermine, pH 6.5, -30 mV",1.74 ± 0.06
same,Isper/Io 200 μM,"[1]; 200 μM spermine, pH 6.5, -30 mV",6.89 ± 0.52
same,Isper/Io 1000 μM,"[1]; 1000 μM spermine, pH 6.5, -30 mV",12.55 ± 0.41
same,spermine maximal potentiation,[1]; [7],11.2 ± 3.3
same,spermine nH,[1]; [7],1.26 ± 0.09
same,EC50,"[1]; pH 6.5, holding potential -30 mV, read-out: spermine EC50",174 ± 64.5 µM
same,Isper/Io 20 μM,[4]; +UV,1.24 ± 0.03
same,Isper/Io 20 μM,[4]; -UV,2.11 ± 0.15
same,Isper/Io 200 μM,[4]; +UV,2.12 ± 0.26
same,Isper/Io 200 μM,[4]; -UV,13.65 ± 1.01
same,Isper/Io 1000 μM,[4]; +UV,2.49 ± 0.42
same,Isper/Io 1000 μM,[4]; -UV,23.05 ± 1.52
same,spermine maximal potentiation,[4]; after UV,1.6 ± 0.5
same,spermine nH,[4]; after UV,1.14 ± 0.16
same,EC50,[4]; after UV,93 ± 22.8 µM
same,spermine maximal potentiation,[4]; before UV,26.1 ± 2.5
same,spermine nH,[4]; before UV,1.29 ± 0.22
same,EC50,[4]; before UV,215 ± 63.2 µM
